Measurements reported in patent US12466800B2, “N-((1,2,3,5,6,7-hexahydro-S-indacen-4-yl)carbamoyl)-4, 5, 6, 7-tetrahydrobenzofuran-2-sulfonamide derivatives and related compounds as NLPR3 modulators for the treatment of multiple sclerosis (MS)” (Zomagen Biosciences Ltd, priority 2019, dated 2025).

What follows are compounds tested on IL-1b (assay: Mouse BMDM IL-1b Assay). Conditions: Macrophage; mouse bone marrow derived macrophages (C57BL6); 200 ng/mL LPS 3 h, compound 30 min, 5 mM ATP 45 min; IL-1b ELISA of supernatant.
Assay type: cell-based
Experimental: Example 20: Mouse BMDM IL-1b Assay
Mouse bone marrow cells from C57BL6 tibia and femur were culture in complete Isocov's Media supplemented with 20 ng/mL MCSF (BMDM media) at a density of 50 million cells/15 cm Petri dish. Fresh media was changed every 3 days, and bone marrow derived macrophages were collected, washed, and counted on day 7. Cells were seeded into 96 well plates at a density of 5×10^4 cells per well in 100 uL of BMDM media and cultured overnight. The cells were stimulated at 37° C. with 200 ng/mL Ultrapure LPS-B5 for 3 hours before pre-diluted compounds were added. 30 minutes after compound addition, 5 mM ATP was added for the secondary stimulation for 45 minutes. After stimulation, the plates were briefly spun down, and 50 uL of supernatant was harvested from each well. ELISA for mouse IL-1b was performed with 1:10 and 1:100 diluted supernatant using pre-coated kits. IL-1b concentrations were calculated based on pre-titrated standards, and compound inhibition IC50 is generated using the Levenberg Marquardt damped lease-square method.

`CC(C)c1cccc(C(C)C)c1NC(=O)NS(=O)(=O)c1cc2c(o1)CCC/C2=N\O` [Compound 81, (E)-N-((2,6-diisopropylphenyl)carbamoyl)-4-(hydroxyimino)-4,5,6,7-tetrahydrobenzofuran-2-sulfonamide] and `CC(C)c1cc(F)cc(C(C)C)c1NC(=O)NS(=O)(=O)c1cc2c(o1)CCC/C2=N/O` [Compound 85, (Z)-N-((4-fluoro-2,6-diisopropylphenyl)carbamoyl)-4-(hydroxyimino)-4,5,6,7-tetrahydrobenzofuran-2-sulfonamide] fall in the same range of IC50: 1000 to 10000 nM for the first, 1000 to 10000 nM for the second.

`O=C(Nc1c2c(c(Br)c3c1CCC3)CCC2)NS(=O)(=O)c1cc2c(o1)CCC/C2=N/O` [Compound 82, (Z)-N-((8-bromo-1,2,3,4,5,6,7-hexahydro-s-indacen-4-yl)carbamoyl)-4-(hydroxyimino)-4,5,6,7-tetrahydrobenzofuran-2-sulfonamide] and `O=C(Nc1c2c(c(Br)c3c1CCC3)CCC2)NS(=O)(=O)c1cc2c(o1)CCC/C2=N\O` [Compound 95, (E)-N-((8-bromo-1,2,3,5,6,7-hexahydro-s-indacen-4-yl)carbamoyl)-4-(hydroxyimino)-4,5,6,7-tetrahydrobenzofuran-2-sulfonamide] fall in the same range of IC50: 100 to 1000 nM for the first, 100 to 1000 nM for the second.

First: O=C(Nc1c2c(c(Cl)c3c1CCC3)CCC2)NS(=O)(=O)c1cc2c(o1)CCC/C2=N/O [Compound 83, (Z)-N-((8-chloro-1,2,3,5,6,7-hexahydro-s-indacen-4-yl)carbamoyl)-4-(hydroxyimino)-4,5,6,7-tetrahydrobenzofuran-2-sulfonamide]
Second: O=C(Nc1c2c(c(Cl)c3c1CCC3)CCC2)NS(=O)(=O)c1cc2c(o1)CCC/C2=N\O [Compound 96, (E)-N-((8-chloro-1,2,3,5,6,7-hexahydro-s-indacen-4-yl)carbamoyl)-4-(hydroxyimino)-4,5,6,7-tetrahydrobenzofuran-2-sulfonamide]
The IC50 of the first is lower: < 100 nM for the first, 100 to 1000 nM for the second.

First: CC(C)N1CCCc2oc(S(=O)(=O)NC(=O)Nc3c4c(cc5c3CCC5)CCC4)cc2C1=O [Compound 84, N-((1,2,3,5,6,7-hexahydro-s-indacen-4-yl)carbamoyl)-5-isopropyl-4-oxo-5,6,7,8-tetrahydro-4H-furo[3,2-c]azepine-2-sulfonamide]
Second: CN1CCCc2oc(S(=O)(=O)NC(=O)Nc3c4c(cc5c3CCC5)CCC4)cc2C1 [Compound 87, N-((1,2,3,5,6,7-hexahydro-s-indacen-4-yl)carbamoyl)-5-methyl-5,6,7,8-tetrahydro-4H-furo[3,2-c]azepine-2-sulfonamide]
The IC50 of the first is higher: 1000 to 10000 nM for the first, < 100 nM for the second.

`CC(C)c1cc(F)cc(C(C)C)c1NC(=O)NS(=O)(=O)c1cc2c(o1)CCC/C2=N\O` [Compound 86, (E)-N-((4-fluoro-2,6-diisopropylphenyl)carbamoyl)-4-(hydroxyimino)-4,5,6,7-tetrahydrobenzofuran-2-sulfonamide] and `CC(C)c1ccc(F)c(C(C)C)c1NC(=O)NS(=O)(=O)c1cc2c(o1)CCC/C2=N/O` [Compound 97, (Z)-N-((3-fluoro-2,6-diisopropylphenyl)carbamoyl)-4-(hydroxyimino)-4,5,6,7-tetrahydrobenzofuran-2-sulfonamide] fall in the same range of IC50: 100 to 1000 nM for the first, 100 to 1000 nM for the second.

First: C=CCC1(O)c2cc(S(=O)(=O)NC(=O)Nc3c4c(cc5c3CCC5)CCC4)oc2CCC1(C)C (centres unmarked) [Compound 88, 4-allyl-N-((1,2,3,5,6,7-hexahydro-s-indacen-4-yl)carbamoyl)-4-hydroxy-5,5-dimethyl-4,5,6,7-tetrahydrobenzofuran-2-sulfonamide]
Second: O=C(O)CC1(O)CCCc2oc(S(=O)(=O)NC(=O)Nc3c4c(cc5c3CCC5)CCC4)cc21 (centres unmarked) [Compound 104, 2-(2-(N-((1,2,3,5,6,7-hexahydro-s-indacen-4-yl)carbamoyl)sulfamoyl)-4-hydroxy-4,5,6,7-tetrahydrobenzofuran-4-yl)acetic acid]
The IC50 of the first is lower: < 100 nM for the first, 1000 to 10000 nM for the second.

`O=C(Nc1c2c(c(F)c3c1CCC3)CCC2)NS(=O)(=O)c1cc2c(o1)CCC/C2=N/O` [Compound 89, (Z)-N-((8-fluoro-1,2,3,5,6,7-hexahydro-s-indacen-4-yl)carbamoyl)-4-(hydroxyimino)-4,5,6,7-tetrahydrobenzofuran-2-sulfonamide] and `O=C(Nc1c2c(c(F)c3c1CCC3)CCC2)NS(=O)(=O)c1cc2c(o1)CCC/C2=N\O` [Compound 90, (E)-N-((8-fluoro-1,2,3,5,6,7-hexahydro-s-indacen-4-yl)carbamoyl)-4-(hydroxyimino)-4,5,6,7-tetrahydrobenzofuran-2-sulfonamide] cannot be ordered by IC50: < 100 nM for the first, < 100 nM for the second.

First: Cc1c(S(=O)(=O)NC(=O)Nc2c3c(cc4c2CCC4)CCC3)oc2c1C(=O)CCC2 [Compound 91, N-((1,2,3,5,6,7-hexahydro-s-indacen-4-yl)carbamoyl)-3-methyl-4-oxo-4,5,6,7-tetrahydrobenzofuran-2-sulfonamide]
Second: Cc1c(S(=O)(=O)NC(=O)Nc2c3c(cc4c2CCC4)CCC3)oc2c1/C(=N\O)CCC2 [Compound 99, (Z)-N-((1,2,3,5,6,7-hexahydro-s-indacen-4-yl)carbamoyl)-4-(hydroxyimino)-3-methyl-4,5,6,7-tetrahydrobenzofuran-2-sulfonamide]
The IC50 of the first is lower: < 100 nM for the first, 100 to 1000 nM for the second.

`Cc1c(S(=O)(=O)NC(=O)Nc2c3c(cc4c2CCC4)CCC3)oc2c1C(O)CCC2` (centres unmarked) [Compound 92, N-((1,2,3,5,6,7-hexahydro-s-indacen-4-yl)carbamoyl)-4-hydroxy-3-methyl-4,5,6,7-tetrahydrobenzofuran-2-sulfonamide] and `Cc1c(S(=O)(=O)NC(=O)Nc2c3c(cc4c2CCC4)CCC3)oc2c1C(C)(O)CCC2` (centres unmarked) [Compound 93, N-((1,2,3,5,6,7-hexahydro-s-indacen-4-yl)carbamoyl)-4-hydroxy-3,4-dimethyl-4,5,6,7-tetrahydrobenzofuran-2-sulfonamide] cannot be ordered by IC50: < 100 nM for the first, < 100 nM for the second.

`CCOC(=O)CC1(C)CCCc2oc(S(=O)(=O)NC(=O)Nc3c4c(cc5c3CCC5)CCC4)c(C)c21` (centres unmarked) [Compound 94, ethyl 2-(2-(N-((1,2,3,5,6,7-hexahydro-s-indacen-4-yl)carbamoyl)sulfamoyl)-3,4-dimethyl-4,5,6,7-tetrahydrobenzofuran-4-yl)acetate] and `CCOC(=O)C#CC1(O)CCCc2oc(S(=O)(=O)NC(=O)Nc3c4c(cc5c3CCC5)CCC4)cc21` (centres unmarked) [Compound 105, ethyl 3-(2-(N-((1,2,3,5,6,7-hexahydro-s-indacen-4-yl)carbamoyl)sulfamoyl)-4-hydroxy-4,5,6,7-tetrahydrobenzofuran-4-yl)propiolate] fall in the same range of IC50: 100 to 1000 nM for the first, 100 to 1000 nM for the second.

Compared with `CC(C)c1ccc(F)c(C(C)C)c1NC(=O)NS(=O)(=O)c1cc2c(o1)CCC/C2=N\O` [Compound 98, (E)-N-((3-fluoro-2,6-diisopropylphenyl)carbamoyl)-4-(hydroxyimino)-4,5,6,7-tetrahydrobenzofuran-2-sulfonamide], `CC(C)c1c(F)c(Cl)c(F)c(C(C)C)c1NC(=O)NS(=O)(=O)c1cc2c(o1)CCC/C2=N/O` [Compound 100, (Z)-N-((4-chloro-3,5-difluoro-2,6-diisopropylphenyl)carbamoyl)-4-(hydroxyimino)-4,5,6,7-tetrahydrobenzofuran-2-sulfonamide] is higher in IC50: 100 to 1000 nM for the first, 1000 to 10000 nM for the second. The first is the more potent here.

`CC(C)c1c(F)c(Cl)c(F)c(C(C)C)c1NC(=O)NS(=O)(=O)c1cc2c(o1)CCC/C2=N\O` [Compound 101, (E)-N-((4-chloro-3,5-difluoro-2,6-diisopropylphenyl)carbamoyl)-4-(hydroxyimino)-4,5,6,7-tetrahydrobenzofuran-2-sulfonamide] and `CC(C)c1c(F)c(Cl)c(F)c(C(C)C)c1NC(=O)NS(=O)(=O)c1cc2c(o1)CCCC2O` (centres unmarked) [Compound 102, N-((4-chloro-3,5-difluoro-2,6-diisopropylphenyl)carbamoyl)-4-hydroxy-4,5,6,7-tetrahydrobenzofuran-2-sulfonamide] fall in the same range of IC50: 100 to 1000 nM for the first, 100 to 1000 nM for the second.

`CC(C)c1c(F)c(Cl)c(F)c(C(C)C)c1NC(=O)NS(=O)(=O)c1cc2c(o1)CCCC2(C)O` (centres unmarked) [Compound 103, N-((4-chloro-3,5-difluoro-2,6-diisopropylphenyl)carbamoyl)-4-hydroxy-4-methyl-4,5,6,7-tetrahydrobenzofuran-2-sulfonamide] and `CC(C)c1cccc(C(C)C)c1NC(=O)NS(=O)(=O)c1cc2c(o1)CCCCC2(C)O` (centres unmarked) [Compound 109, N-((2,6-diisopropylphenyl)carbamoyl)-4-hydroxy-4-methyl-5,6,7,8-tetrahydro-4H-cyclohepta[b]furan-2-sulfonamide] fall in the same range of IC50: 100 to 1000 nM for the first, 100 to 1000 nM for the second.

`CC1(O)CCCCc2oc(S(=O)(=O)NC(=O)Nc3c4c(c(F)c5c3CCC5)CCC4)cc21` (centres unmarked) [Compound 106, N-((8-fluoro-1,2,3,5,6,7-hexahydro-s-indacen-4-yl)carbamoyl)-4-hydroxy-4-methyl-5,6,7,8-tetrahydro-4H-cyclohepta[b]furan-2-sulfonamide] and `CC1(O)CCCCc2oc(S(=O)(=O)NC(=O)Nc3c4c(c(Cl)c5c3CCC5)CCC4)cc21` (centres unmarked) [Compound 107, N-((8-chloro-1,2,3,5,6,7-hexahydro-s-indacen-4-yl)carbamoyl)-4-hydroxy-4-methyl-5,6,7,8-tetrahydro-4H-cyclohepta[b]furan-2-sulfonamide] cannot be ordered by IC50: < 100 nM for the first, < 100 nM for the second.

`CC1(O)CCCCc2oc(S(=O)(=O)NC(=O)Nc3c4c(c(Br)c5c3CCC5)CCC4)cc21` (centres unmarked) [Compound 108, N-((8-bromo-1,2,3,5,6,7-hexahydro-s-indacen-4-yl)carbamoyl)-4-hydroxy-4-methyl-5,6,7,8-tetrahydro-4H-cyclohepta[b]furan-2-sulfonamide] was tested, and the IC50 was < 100 nM.
